How the values were obtained:
RORγt = RORγt (Homo sapiens (Human), UniProt P51449); experiment: RORγt Gal fusion assay (Gal4 ligand binding reporter assay); format: cell-based; details: RORγt inverse agonists
Experimental: Human RORγ ligand binding assay was performed in 96-well format. The N-terminal DNA binding domains (DBD) of the native RORγ and RORγt receptors have been substituted with that of the yeast GAL4-DBD and RORγ is expressed constitutively in the cell line. Both agonist and inverse agonist activity can be detected. 10 mM compound stocks were diluted serially 1:3 with DMSO and further diluted with provided media to generate 10 titration points from 60 μM to 3 nM. These treatment conditions were added to the plates as 2× media in 100 μL volume. Each plate includes a positive control with 10 titration points as well as 6 negative control wells with vehicle only. Reporter cells were rapidly thawed and added to the plates in 100 μL volume. The plates were incubated for 24 hrs in a 37° C. humidified 5% CO2 incubator. Media was removed before the addition of room temperature Detection Substrate. After 5 minute incubation, the luminescence was quantified on a luminescence plate reader.

IMQ-induced psoriasis = details: topical pre-treatment daily for 5 days, 4 hours before IMQ
Experimental: Compounds of Formula (I), (Ia), or (Ib) were tested in the imiquimod (IMQ) induced psoriasis model in mice to determine their in vivo efficacy as topical agents. Female Balb/c mice of age 8-10 weeks were allowed to acclimatize for at least seven days prior to experiment initiation. During this period, the mice were observed daily for clinical signs. Animals were randomly assigned to studies group on Day zero (DO) before anaesthetization and back hair was completely removed by using a depilatory cream. One group of animals served as a naïve control (untreated). […] The severity of psoriasis was monitored and graded daily using a modified human scoring system, the Psoriasis Area and Severity Index (PASI), which consists of measures for ear and skin erythema, scaling and thickness. At the end of the study period, 24 hours after the final dosing, all animals were humanely sacrificed, and blind histopathological scoring was performed by pathologist on H&E stained tissue sections of the ear and back.

Chain of RORγt (P51449 269-508): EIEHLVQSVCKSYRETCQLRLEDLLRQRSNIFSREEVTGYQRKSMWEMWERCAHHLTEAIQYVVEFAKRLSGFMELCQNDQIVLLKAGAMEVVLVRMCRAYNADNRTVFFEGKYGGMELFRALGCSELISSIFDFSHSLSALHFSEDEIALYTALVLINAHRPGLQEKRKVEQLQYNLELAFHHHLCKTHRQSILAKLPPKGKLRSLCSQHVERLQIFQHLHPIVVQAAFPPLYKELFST

Compound | IC50 (RORγt) | other results
O=C(CC1CN(Cc2ccc(-c3ccc(C(O)(C(F)(F)F)C(F)(F)F)cc3)cc2)CCN1Cc1ccncc1)OCCO (stereo not shown) [Compound 31, 2-hydroxyethyl 2-(4-((4′-(1,1,1,3,3,3-hexafluoro-2-hydroxypropan-2-yl)-[1,1′-biphenyl]-4-yl)methyl)-1-(pyridin-4-ylmethyl)piperazin-2-yl)acetate] | < 1 µM | 
CCOC(=O)C1CN(Cc2ccncc2)CCN1Cc1ccc(-c2ccc(C(O)(C(F)(F)F)C(F)(F)F)cc2)cc1 (stereo not shown) [Compound 9, ethyl 1-((4′-(1,1,1,3,3,3-hexafluoro-2-hydroxypropan-2-yl)-[1,1′-biphenyl]-4-yl)methyl)-4-(pyridin-4-ylmethyl)piperazine-2-carboxylate] | < 1 µM | 
CCOC(=O)C1CN(Cc2ccc(-c3ccc(C(O)(C(F)(F)F)C(F)(F)F)cc3)cc2)CCN1Cc1ccncc1 (stereo not shown) [Compound 17, ethyl 4-((4′-(1,1,1,3,3,3-hexafluoro-2-hydroxypropan-2-yl)-[1,1′-biphenyl]-4-yl)methyl)-1-(pyridin-4-ylmethyl)piperazine-2-carboxylate] | < 1 µM | 
CCOCCOC(=O)C[C@H]1CN(Cc2ccc(-c3ccc(C(O)(C(F)(F)F)C(F)(F)F)cc3)cc2)CCN1Cc1ccncc1 [Compound 51, 2-ethoxyethyl (S)-2-(4-((4′-(1,1,1,3,3,3-hexafluoro-2-hydroxypropan-2-yl)-[1,1′-biphenyl]-4-yl)methyl)-1-(pyridin-4-ylmethyl)piperazin-2-yl)acetate] | < 1 µM | 
O=C(O)C1CN(Cc2ccc(-c3ccc(C(O)(C(F)(F)F)C(F)(F)F)cc3)cc2)CCN1Cc1ccncc1 (stereo not shown) [Compound 20, 4-((4′-(1,1,1,3,3,3-hexafluoro-2-hydroxypropan-2-yl)-[1,1′-biphenyl]-4-yl)methyl)-1-(pyridin-4-ylmethyl)piperazine-2-carboxylic acid] | > 10 µM | 
CC(C)NC(=O)C1CN(Cc2ccncc2)CCN1Cc1ccc(-c2ccc(C(O)(C(F)(F)F)C(F)(F)F)cc2)cc1 (stereo not shown) [Compound 24, 1-((4′-(1,1,1,3,3,3-hexafluoro-2-hydroxypropan-2-yl)-[1,1′-biphenyl]-4-yl)methyl)-N-isopropyl-4-(pyridin-4-ylmethyl)piperazine-2-carboxamide] | > 10 µM | 
CC(C)OC(=O)CC1CN(Cc2ccc(-c3ccc(C(O)(C(F)(F)F)C(F)(F)F)cc3)cc2)CCN1Cc1ccncc1 (stereo not shown) [Compound 30, isopropyl 2-(4-((4′-(1,1,1,3,3,3-hexafluoro-2-hydroxypropan-2-yl)-[1,1′-biphenyl]-4-yl)methyl)-1-(pyridin-4-ylmethyl)piperazin-2-yl)acetate] | < 1 µM | 
CCOCCOC(=O)CC1CN(Cc2ccc(-c3ccc(C(O)(C(F)(F)F)C(F)(F)F)cc3)cc2)CCN1Cc1ccncc1 (stereo not shown) [Compound 32, 2-ethoxyethyl 2-(4-((4′-(1,1,1,3,3,3-hexafluoro-2-hydroxypropan-2-yl)-[1,1′-biphenyl]-4-yl)methyl)-1-(pyridin-4-ylmethyl)piperazin-2-yl)acetate] | < 1 µM | 
CCOC(=O)C[C@@H]1CN(Cc2ccc(-c3ccc(C(O)(C(F)(F)F)C(F)(F)F)cc3)cc2)CCN1Cc1ccncc1 [Compound 49, ethyl (R)-2-(4-((4′-(1,1,1,3,3,3-hexafluoro-2-hydroxypropan-2-yl)-[1,1′-biphenyl]-4-yl)methyl)-1-(pyridin-4-ylmethyl)piperazin-2-yl)acetate] | < 1 µM | 
O=C(O)CC1CN(Cc2ccc(-c3ccc(C(O)(C(F)(F)F)C(F)(F)F)cc3)cc2)CCN1Cc1ccncc1 (stereo not shown) [Compound 21, 2-(4-((4′-(1,1,1,3,3,3-hexafluoro-2-hydroxypropan-2-yl)-[1,1′-biphenyl]-4-yl)methyl)-1-(pyridin-4-ylmethyl)piperazin-2-yl)acetic acid] | > 10 µM | 
CCOC(=O)CC1CN(Cc2ccc(-c3ccc(C(O)(C(F)(F)F)C(F)(F)F)cc3)cc2)CCN1Cc1ccncc1 (stereo not shown) [Compound 18, ethyl 2-(4-((4′-(1,1,1,3,3,3-hexafluoro-2-hydroxypropan-2-yl)-[1,1′-biphenyl]-4-yl)methyl)-1-(pyridin-4-ylmethyl)piperazin-2-yl)acetate] | < 1 µM | 
CCOC(=O)CC1CN(Cc2ccncc2)CCN1Cc1ccc(-c2ccc(C(O)(C(F)(F)F)C(F)(F)F)cc2)cc1 (stereo not shown) [Compound 10, ethyl 2-(1-((4′-(1,1,1,3,3,3-hexafluoro-2-hydroxypropan-2-yl)-[1,1′-biphenyl]-4-yl)methyl)-4-(pyridin-4-ylmethyl)piperazin-2-yl)acetate] | < 1 µM | 
CCOC(=O)CC1CN(Cc2ccc(-c3ccc(C(O)(C(F)(F)F)C(F)(F)F)cc3)c(C)c2)CCN1Cc1ccncc1 (stereo not shown) [Compound 35, ethyl 2-(4-((4′-(1,1,1,3,3,3-hexafluoro-2-hydroxypropan-2-yl)-2-methyl-[1,1′-biphenyl]-4-yl)methyl)-1-(pyridin-4-ylmethyl)piperazin-2-yl)acetate] | < 1 µM | 
C[C@H]1C[C@H]2[C@@H]3CCC4=CC(=O)C=C[C@]4(C)[C@@]3(F)[C@@H](O)C[C@]2(C)[C@@]1(O)C(=O)CCl [clobetasol] |  | ear and back skin thickness (IMQ-induced psoriasis): significantly decreased; histopathology scoring (IMQ-induced psoriasis): significantly decreased; total psoriasis score (IMQ-induced psoriasis): significantly decreased
